Data: the supplement of paper PMC6045584
± gives the standard deviation of the averaged measurements.

What follows are test systems tested with CC(=O)NCC(=O)N1[C@@H]2CC[C@H]1c1ccc(Nc3ncc(C(F)(F)F)c(NC4CCC4)n3)cc12 (assay: surviving fraction relative to DMSO-only wells; higher = less growth inhibition). Settings: 0.5 nM; exposure time: 5 days.
Method in brief: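 In 384-well plates, 250–500 log-phase tumour cells per well were given 24 hours before five days of continuous exposure to inhibitors at 0.5, 1, 5, 10, 50, 100, 500 and 1000 nM. Surviving fraction is luminescence from CellTiter-Glo, normalised to the median of wells containing DMSO alone. Reading took place after 10 minutes at room temperature.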

Test System | surviving fraction
JURKAT HAEMATOPOIETIC AND LYMPHOID TISSUE | 1.07 ± 0.015
SJSA1 BONE | 1.06 ± 0.086
YAMATO SYNOVIAL | 1.06 ± 0.048
C33A CERVIX | 0.77 ± 0.079
PCI30 HEADNECK | 0.891 ± 0.04
SCC003 HEADNECK | 0.911 ± 0.056
HUO3N1 BONE | 1.01 ± 0.064
T47D BREAST | 0.9824 ± 0.0044
NOS1 BONE | 1.25 ± 0.038
HELA CERVIX | 0.991 ± 0.05
NY BONE | 0.962 ± 0.012
CASKI CERVIX | 0.928 ± 0.014
BT549 BREAST | 1.11 ± 0.058
COLO320DM LARGE INTESTINE | 1.1 ± 0.058
MDAMB361 BREAST | 0.96 ± 0.044
HOSMNG BONE | 0.997 ± 0.028
A549 LUNG | 0.952 ± 0.013
CAL51 BREAST | 1.01 ± 0.041
OSHN BONE | 1.01 ± 0.028
MCF7 BREAST | 0.864 ± 0.018
HT1080 SOFT TISSUE | 0.998 ± 0.035

Test System | surviving fraction
MDAMB157 BREAST | 0.954 ± 0.082
143B BONE | 0.98 ± 0.021
SIHA CERVIX | 0.799 ± 0.044
MDAMB134 BREAST | 0.998 ± 0.048
SG32 HEADNECK | 1.19 ± 0.078
NCIH441 LUNG | 0.945 ± 0.064
SG31 HEADNECK | 0.909 ± 0.13
OS25HAL BONE | 0.962 ± 0.045
HCC1954 BREAST | 0.891 ± 0.079
VP229 BREAST | 1.08 ± 0.051
22RV1 PROSTATE | 0.97 ± 0.066
MDAMB231 BREAST | 0.975 ± 0.018
RDES SOFT TISSUE | 1.25 ± 0.15
LM7 BONE | 0.965 ± 0.032
HMT3552 BREAST | 1.16
SNU475 LIVER | 0.9533 ± 0.0031
HCC38 BREAST | 1.19 ± 0.12
HU09 BONE | 1.05 ± 0.082
ASKA SYNOVIAL | 0.973 ± 0.052
CADOES1 SOFT TISSUE | 0.969 ± 0.1

Same assay, conditions: 1 nM; exposure time: 5 days

Test System | surviving fraction
JURKAT HAEMATOPOIETIC AND LYMPHOID TISSUE | 1.06 ± 0.028
SJSA1 BONE | 1.08 ± 0.061
YAMATO SYNOVIAL | 1.02 ± 0.049
C33A CERVIX | 0.707 ± 0.032
PCI30 HEADNECK | 0.873 ± 0.077
SCC003 HEADNECK | 0.889 ± 0.096
HUO3N1 BONE | 0.997 ± 0.054
T47D BREAST | 1.02 ± 0.014
NOS1 BONE | 1.29 ± 0.1
HELA CERVIX | 1.02 ± 0.092
NY BONE | 0.941 ± 0.029
CASKI CERVIX | 0.939 ± 0.042
BT549 BREAST | 1.09 ± 0.046
COLO320DM LARGE INTESTINE | 1.09 ± 0.077
MDAMB361 BREAST | 0.939 ± 0.041
HOSMNG BONE | 1.01 ± 0.06
A549 LUNG | 0.93 ± 0.018
CAL51 BREAST | 0.9652 ± 0.005
OSHN BONE | 1 ± 0.029
MCF7 BREAST | 0.858 ± 0.028
HT1080 SOFT TISSUE | 0.983 ± 0.011

Test System | surviving fraction
MDAMB157 BREAST | 0.854 ± 0.042
143B BONE | 0.996 ± 0.013
SIHA CERVIX | 0.859 ± 0.034
MDAMB134 BREAST | 1.07 ± 0.37
SG32 HEADNECK | 1.02 ± 0.12
NCIH441 LUNG | 0.954 ± 0.056
SG31 HEADNECK | 1.05 ± 0.18
OS25HAL BONE | 0.9613 ± 0.0038
HCC1954 BREAST | 0.784 ± 0.085
VP229 BREAST | 1.1 ± 0.12
22RV1 PROSTATE | 0.996 ± 0.047
MDAMB231 BREAST | 0.98 ± 0.016
RDES SOFT TISSUE | 1.26 ± 0.18
LM7 BONE | 0.951 ± 0.058
HMT3552 BREAST | 1.06
SNU475 LIVER | 0.962 ± 0.038
HCC38 BREAST | 1.19 ± 0.3
HU09 BONE | 1.01 ± 0.03
ASKA SYNOVIAL | 0.908 ± 0.012
CADOES1 SOFT TISSUE | 0.955 ± 0.099

Same assay, conditions: 5 nM; exposure time: 5 days

Test System | surviving fraction
JURKAT HAEMATOPOIETIC AND LYMPHOID TISSUE | 1.07 ± 0.012
SJSA1 BONE | 1.08 ± 0.047
YAMATO SYNOVIAL | 1.1 ± 0.061
C33A CERVIX | 0.895 ± 0.062
PCI30 HEADNECK | 1.01 ± 0.067
SCC003 HEADNECK | 1.05 ± 0.06
HUO3N1 BONE | 1.01 ± 0.021
T47D BREAST | 1.03 ± 0.032
NOS1 BONE | 1.53 ± 0.21
HELA CERVIX | 0.977 ± 0.051
NY BONE | 0.9803 ± 0.0061
CASKI CERVIX | 0.968 ± 0.072
BT549 BREAST | 1.04 ± 0.12
COLO320DM LARGE INTESTINE | 0.979 ± 0.086
MDAMB361 BREAST | 0.88 ± 0.038
HOSMNG BONE | 0.962 ± 0.033
A549 LUNG | 0.906 ± 0.016
CAL51 BREAST | 0.988 ± 0.032
OSHN BONE | 1 ± 0.025
MCF7 BREAST | 0.808 ± 0.034
HT1080 SOFT TISSUE | 0.964 ± 0.05

Test System | surviving fraction
MDAMB157 BREAST | 0.858 ± 0.081
143B BONE | 1.01 ± 0.026
SIHA CERVIX | 0.933 ± 0.053
MDAMB134 BREAST | 1.01 ± 0.04
SG32 HEADNECK | 0.952 ± 0.044
NCIH441 LUNG | 0.939 ± 0.065
SG31 HEADNECK | 1.03 ± 0.26
OS25HAL BONE | 0.97 ± 0.024
HCC1954 BREAST | 1.17 ± 0.054
VP229 BREAST | 1.02 ± 0.15
22RV1 PROSTATE | 0.937 ± 0.029
MDAMB231 BREAST | 0.974 ± 0.011
RDES SOFT TISSUE | 1.3 ± 0.047
LM7 BONE | 1.04 ± 0.051
HMT3552 BREAST | 1.01
SNU475 LIVER | 0.9607 ± 0.0076
HCC38 BREAST | 0.952 ± 0.096
HU09 BONE | 1.08 ± 0.075
ASKA SYNOVIAL | 0.972 ± 0.085
CADOES1 SOFT TISSUE | 0.883 ± 0.094

Same assay, conditions: 10 nM; exposure time: 5 days

Test System | surviving fraction
JURKAT HAEMATOPOIETIC AND LYMPHOID TISSUE | 1.03 ± 0.03
SJSA1 BONE | 1.03 ± 0.016
YAMATO SYNOVIAL | 1.14 ± 0.058
C33A CERVIX | 0.953 ± 0.069
PCI30 HEADNECK | 1.04 ± 0.084
SCC003 HEADNECK | 1.02 ± 0.027
HUO3N1 BONE | 1.02 ± 0.036
T47D BREAST | 1.05 ± 0.046
NOS1 BONE | 1.21 ± 0.095
HELA CERVIX | 0.956 ± 0.048
NY BONE | 0.964 ± 0.03
CASKI CERVIX | 0.946 ± 0.067
BT549 BREAST | 1.05 ± 0.073
COLO320DM LARGE INTESTINE | 0.954 ± 0.035
MDAMB361 BREAST | 0.873 ± 0.02
HOSMNG BONE | 0.989 ± 0.016
A549 LUNG | 0.911 ± 0.014
CAL51 BREAST | 0.946 ± 0.013
OSHN BONE | 0.993 ± 0.05
MCF7 BREAST | 0.826 ± 0.021
HT1080 SOFT TISSUE | 0.961 ± 0.031

Test System | surviving fraction
MDAMB157 BREAST | 0.895 ± 0.064
143B BONE | 0.966 ± 0.018
SIHA CERVIX | 0.978 ± 0.042
MDAMB134 BREAST | 1.02 ± 0.11
SG32 HEADNECK | 1.14 ± 0.031
NCIH441 LUNG | 0.927 ± 0.12
SG31 HEADNECK | 0.808 ± 0.041
OS25HAL BONE | 0.947 ± 0.015
HCC1954 BREAST | 0.986 ± 0.042
VP229 BREAST | 0.999 ± 0.04
22RV1 PROSTATE | 0.95 ± 0.03
MDAMB231 BREAST | 0.967 ± 0.015
RDES SOFT TISSUE | 1.3 ± 0.079
LM7 BONE | 1.02 ± 0.011
HMT3552 BREAST | 0.934
SNU475 LIVER | 0.899 ± 0.051
HCC38 BREAST | 1.26 ± 0.31
HU09 BONE | 1.11 ± 0.078
ASKA SYNOVIAL | 0.912 ± 0.084
CADOES1 SOFT TISSUE | 0.849 ± 0.1

Same assay, conditions: 50 nM; exposure time: 5 days

Test System | surviving fraction
JURKAT HAEMATOPOIETIC AND LYMPHOID TISSUE | 0.286 ± 0.012
SJSA1 BONE | 1.07 ± 0.026
